According to patent US11802120B2, “Fused cyclic urea derivatives as CRHR2 antagonist” (RaQualia Pharma Inc., priority 2018, dated 2023):

What follows are molecules tested against T1, human CRHR2-alpha (Homo sapiens, UniProt Q13324) (assay: cAMP functional assay for human CRHR2 (LANCE Ultra cAMP, TR-FRET)). Conditions: CHO-K1 cells expressing human CRHR2-alpha, agonist human urocortin2 at EC80, cAMP; read-out: IC50 against CRHR2.
T1 sequence (Q13324 1-411): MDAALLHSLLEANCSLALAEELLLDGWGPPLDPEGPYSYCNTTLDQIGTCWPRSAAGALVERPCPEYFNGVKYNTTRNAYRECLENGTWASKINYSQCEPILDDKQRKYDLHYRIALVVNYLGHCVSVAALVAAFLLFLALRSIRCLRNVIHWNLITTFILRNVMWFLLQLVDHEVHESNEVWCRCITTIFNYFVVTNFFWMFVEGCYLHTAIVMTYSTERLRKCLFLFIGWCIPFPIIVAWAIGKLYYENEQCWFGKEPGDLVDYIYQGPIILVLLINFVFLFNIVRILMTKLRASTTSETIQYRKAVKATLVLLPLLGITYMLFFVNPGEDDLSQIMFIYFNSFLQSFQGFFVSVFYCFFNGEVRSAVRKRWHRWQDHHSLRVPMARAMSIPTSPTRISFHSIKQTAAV
Assay type: cell-based
Summary of the method: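 First, starved and frozen CHO-K1 cells expressing the receptor are thawed into IBMX-containing HBSS buffer (pH 7.4). Next, compounds are added for 30 min at 25° C. Then agonist at EC80 (urocortin2 or CRF, per receptor) is added for another 30 min, followed by cAMP detection reagents.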

IC50, < 300 nM:
O=C(N[C@H]1CC[C@H](Cn2c(=O)n(-c3ccc(O[C@H]4CCOC4)nc3)c3ccccc32)CC1)c1cc(Cl)cnc1C(F)F [Example 430, 5-chloro-2-(difluoromethyl)-N-((1S,4r)-4-((2-oxo-3-(6-(((S)-tetrahydrofuran-3-yl)oxy)pyridin-3-yl)-2,3-dihydro-1H-benzo[d]imidazol-1-yl)methyl)cyclohexyl)nicotinamide]
Cc1ncc(Cl)cc1C(=O)N[C@H]1CC[C@H](Cn2c(=O)n(-c3cncc(-c4ccn(C)n4)c3)c3ccccc32)CC1 [Example 652, 5-chloro-2-methyl-N-((1r,4r)-4-((3-(5-(1-methyl-1H-pyrazol-3-yl)pyridin-3-yl)-2-oxo-2,3-dihydro-1H-benzo[d]imidazol-1-yl)methyl)cyclohexyl)nicotinamide]
Cc1ncc(Cl)cc1C(=O)N[C@H]1CC[C@H](Cn2c(=O)n(-c3ccc(-n4ccnn4)nc3)c3ccccc32)CC1 [Example 511, N-((1r,4r)-4-((3-(6-(1H-1,2,3-triazol-1-yl)pyridin-3-yl)-2-oxo-2,3-dihydro-1H-benzo[d]imidazol-1-yl)methyl)cyclohexyl)-5-chloro-2-methylnicotinamide]
Cc1cc(N2CCCC2=O)ncc1-n1c(=O)n(C[C@H]2CC[C@H](NC(=O)c3cc(Cl)cnc3C(F)F)CC2)c2ccccc21 [Example 561, 5-chloro-2-(difluoromethyl)-N-((1r,4r)-4-((3-(4-methyl-6-(2-oxopyrrolidin-1-yl)pyridin-3-yl)-2-oxo-2,3-dihydro-1H-benzo[d]imidazol-1-yl)methyl)cyclohexyl) nicotinamide]
Cc1ncc(Cl)cc1C(=O)N[C@H]1CC[C@H](Cn2c(=O)n(-c3cnc4ccccc4c3)c3ccccc32)CC1 [Example 346, 5-chloro-2-methyl-N-((1r,4r)-4-((2-oxo-3-(quinolin-3-yl)-2,3-dihydro-1H-benzo[d]imidazol-1-yl)methyl)cyclo-hexyl)nicotinamide]
O=C(N[C@H]1CC[C@H](Cn2c(=O)n(-c3ccc(N[C@H]4CCOC4)nc3)c3ccccc32)CC1)c1cc(Cl)cnc1C(F)F [Example 372, 5-chloro-2-(difluoromethyl)-N-((1S,4r)-4-((2-oxo-3-(6-(((S)-tetrahydrofuran-3-yl)amino)pyridin-3-yl)-2,3-dihydro-1H-benzo[d]imidazol-1-yl)methyl)cyclohexyl)nicotinamide]
Cc1ncc(Cl)cc1C(=O)N[C@H]1CC[C@H](Cn2c(=O)n(-c3ccc4c(c3)cc(C(N)=O)n4C)c3ccccc32)CC1 [Example 403, 5-(3-(((1r,4r)-4-(5-chloro-2-methylnicotinamido)cyclo-hexyl)methyl)-2-oxo-2,3-dihydro-1H-benzo[d]imidazol-1-yl)-1-methyl-1H-indole-2-carboxamide]
Cc1ncc(Cl)cc1C(=O)N[C@H]1CC[C@H](Cn2c(=O)n(-c3ccc(N(C)C)cn3)c3ccccc32)CC1 [Example 647, 5-chloro-N-((1r,4r)-4-((3-(5-(dimethylamino)pyridin-2-yl)-2-oxo-2,3-dihydro-1H-benzo [d]imidazol-1-yl)methyl)cyclo-hexyl)-2-methylnicotinamide]
Cc1ncc(Cl)cc1C(=O)N[C@H]1CC[C@H](Cn2c(=O)n(-c3cncc4ccccc34)c3ccccc32)CC1 [Example 338, 5-chloro-N-((1r,4r)-4-((3-(isoquinolin-4-yl)-2-oxo-2,3-dihydro-1H-benzo[d]imidazol-1-yl)methyl)cyclo-hexyl)-2-methylnicotinamide]
Cc1ncc(Cl)cc1C(=O)N[C@H]1CC[C@H](Cn2c(=O)n(-c3ccc(-n4ccnn4)cc3)c3ccccc32)CC1 [Example 470, N-((1r,4r)-4-((3-(4-(1H-1,2,3-triazol-1-yl)phenyl)-2-oxo-2,3-dihydro-1H-benzo[d]imidazol-1-yl)methyl)cyclohexyl)-5-chloro-2-methylnicotinamide]
